Key:
[1] = tested on: oedème provoqué par le dextrane; assay: Anti-oedema activity, dextran-induced tail oedema (plethysmometer); type: in vivo, rats; conditions: ordinary solution i.v. 20 mg/kg; 1 hour after injection
From the text: On a essayé l'activité anti-oedémique du support, selon l'invention, contenant une préparation antihistaminique (la diphénylhydramine). Le support selon l'invention se composait de 56 à 63 % en masse de fer et de carbone pour le reste; la teneur en diphénylhydramine adsorbée était de 3 % en masse.
Des essais comparatifs de l'activitié anti-oedémique ont été effectués en la comparant à celle de la diphénylhydramine injectée sous forme de solution ordinaire.
Les sujets des essais étaient 30 rats mâles de la population Vistar d'un poids allant de 180 à 220 g. Pour obtenir un oedème expérimental, on a injecté par voie subplantaire au milieu de la queue de 10 rats, 0,1 ml de solution aqueuse de dextrane à 4 %. Un aimant permanent de samarium-cobalt (6000 Oe) a été fixé à cet endroit et on a injecté aussitôt lentement dans la veine caudale 20 mg de support, selon l'invention, contenant 0,6 mg de diphénylhydramine en 0,7 ml de solution de gélatinol à 8 % pour injections (dose moyenne en calculant en diphénylhydramine : 3 mg/kg). La localisation de la dispersion dans le canal vasculaire a été contrôlée par radiographie. Chez 10 rats on a injecté de la même façon la solution de dextrane et on a injecté aussitôt dans la veine caudale la solution de diphénylhydramine (dose : 20 mg/kg, soit en moyenne 5 mg par rat) en 0,7 ml de solution de gélatinol à 8 % pour injections. […]

[2] = tested on: carcinosarcome de Walker, sarcome S-45 ou sarcome M-1; type: in vivo, rats; conditions: for régression complète de la tumeur / durée de vie, augmentation par rapport au groupe témoin (sans antibiotiques): ordinary solution i.v., no carrier: daunorubicyne 2 mg/kg/jour for 5 days, carminomicyne 3 x 0,4 mg/kg at 120 h intervals; for durée de vie, augmentation par rapport au groupe témoin (sans antibiotiques): mean; for examens histologiques de divers tissus, surtout du tissu hépatique / hémopoïèse: rat, in vivo, iv
From the text: Dans les essais effectués, le support selon l'invention était porteur d'une préparation anticancéreuse : daunorubicyne, doxorubicyne ou carminomicyne; teneur en fer : 56 à 64 % en masse, le reste étant du carbone; teneur en antibiotique daunorubicyne, doxorubicyne ou carminomycine adsorbé : 2 à 2,5 % en masse.
L'action anticancéreuse a été établie chez des rats et comparée à celle des microsphères connues portant lesdits antibiotiques (taille moyenne des microsphères: 0,2 à 0,5 »m; enveloppe en albumine dénaturée), ainsi qu'à celle de ces médicaments anticancéreux sans support à commande magnétique. Les sujets expérimentaux étaient des rats d'une masse allant de 180 à 220 g. On a réinoculé aux rats (au milieu de la queue) une des […] couches des tumeurs réinoculables des rats; carcinosarcome de Walker, sarcome S-45 ou sarcome M-1 (40 rats pour chaque souche). Le traitement des animaux a commencé lorsque le volume de la teneur avait 1000 mm³.
Le support selon l'invention contenant de la daunorubicyne ou de la carminomicyne a été injecté en une seule fois lentement dans la veine caudale des rats, dose de 40 mg (0,8 mg en calculant en antibiotique, soit 4 mg/kg), sous forme d'une suspension en 1 ml de solution de gélatinol à 8 % pour injections. Dans le cas de la doxorubicyne la dose a été de 12 mg/kg (dose de support : 96 mg en calculant en antibiotique. Avant l'injection, un aimant permanent de samarium-cobalt (6000 Oe) a été fixé sur la queue au niveau de la tumeur. La localisation du support à antibiotique selon l'invention dans le vaisseau au niveau de la tumeur a été contrôlée à l'aide de radiogrammes.
Les microsphères albumineuses ont été injectées en une seule fois, comme décrit ci-dessus, dans une dose de 4 mg/kg (en calculant en daunorubicyne ou en carminomicyne). Les antibiotiques (sans support à commande magnétique) ont été injectés comme suit : la daunorubicyne a été injectée dans la veine caudale des rats avec une dose de 2 mg/kg/jour en solution de gélatinol à 8 % pour des injections pendant 5 jours (une injection par jour); carminomicyne : 0,4 mg/kg 3 fois avec des intervalles de 120 heures; doxorubicyne : en une seule fois avec une dose de 12 mg/kg. Dans le groupe témoin des animaux atteints de tumeur on a injecté dans la veine, 1 ml de solution de gélatinol à 8 % pour injections.

CN(C)CCOC(c1ccccc1)c1ccccc1 [diphénylhydramine]
augmentation du volume de la queue [1]: 1025±41 mm³ | augmentation du volume de la queue plus faible que dans le groupe témoin [1]: 33±2%

CC(=O)[C@]1(O)Cc2c(O)c3c(c(O)c2[C@@H](O[C@H]2C[C@H](N)[C@H](O)[C@H](C)O2)C1)C(=O)c1c(O)cccc1C3=O [carminomicyne]
régression complète de la tumeur [2]: en aucun cas | durée de vie, augmentation par rapport au groupe témoin (sans antibiotiques) [2]: 15-30% | examens histologiques de divers tissus, surtout du tissu hépatique [2]: altérations cytotoxiques graves | hémopoïèse [2]: oppression de l'hémopoïèse

COc1cccc2c1C(=O)c1c(O)c3c(c(O)c1C2=O)C[C@@](O)(C(C)=O)C[C@@H]3O[C@H]1C[C@H](N)[C@H](O)[C@H](C)O1 [daunorubicyne]
régression complète de la tumeur [2]: en aucun cas | durée de vie, augmentation par rapport au groupe témoin (sans antibiotiques) [2]: 15-30% | examens histologiques de divers tissus, surtout du tissu hépatique [2]: altérations cytotoxiques graves | hémopoïèse [2]: oppression de l'hémopoïèse

From patent EP0451299B1, “MAGNETOCONTROLLABLE CARRIER WITH PHYSIOLOGICALLY ACTIVE SUBSTANCE AND METHOD FOR MAKING SAID CARRIER” (KHOLODOV, Leonid Efimovich, priority 1989, dated 1991)
